Here are results for one molecule from patent publication US7355074B2, “Compounds having aromatic rings and side-chain amide-functionality and a method for transporting monovalent anions across biological membranes using the same” (The University of Maryland, priority 2003, dated 2008).

Data set [1] in a line: voltage-clamp experiments on black lipid membranes. Format: biochemical. On the procedure: FIG. 10(A) represents current events across a BLM in voltage clamp experiments after application of calixarene tetrabutylamide 2 ([…]). The voltage applied was −20 mV for all three recordings. (B) The distribution of conductance ranges observed in voltage clamp experiments with 2 acting as an ion channel.
The voltage-clamp assay was conducted using a setup with two chambers, each filled with an electrolyte solution and separated by a BLM. After voltage was applied across the membrane, a solution of 2 was added to one of the chambers. Subsequent current across the membrane was attributed to ion transport mediated by 2, since control experiments wit DMSO solvent were negative. The abrupt changes in current intensity (events) are consistent with an ion channel mechanism. The relatively long-lasting open states indicate that channels formed by calixarene tetrabutylamide 2 are stable.
Voltage-Clamp Experiments. […] Once calixarene tetrabutylamide 2 was incorporated into the lipid, the current through the membrane was recorded using both a chart recorder and directly digitized and stored as a computer file. The conductance values were calculated by dividing the current by the applied voltage. The events were grouped into conductance ranges of equal magnitude for the purpose of showing the distribution of recorded conductances.

Data set [2] is described as follows: 1H NMR binding experiment in CDCl3, HCl extraction. On the procedure: (§1) FIG. 7 illustrates a series of […] spectra (400 mHz, CDCl3, 22° C.) of calixarene tetrabutylamide in the presence of different species: (A) the compound alone (5 mm); (B) the compound with 1 equiv. of Bu4 NCl; (C) the compound after washing CDCl3 solution of the compound with an aqueous solution of 0.5 m HCl; (D) after washing CDCl3 solution of the compound with an aqueous solution of 0.5 M H2SO4.
(§2) To obtain evidence for Cl^− binding by 2, ^1H NMR experiments were run in CDCl3 using n-Bu4-NCl and HCl as Cl^− sources. Anion receptors usually show chemical shift perturbation upon anion complexation, particularly for amide NH protons that hydrogen bond to the anion. […] Calix[4]arene tetrabutylamide 2 does, however, bind HCl. Thus, shaking a CDCl3 solution of 2 with aqueous HCl led to disappearance of the amide NH proton and a significant upfield shift of the […] protons (FIG. 4c).

The nature of data set [3]: intravesicular pH of LUVs experiencing a Cl- gradient (calixarene amides). Format: biochemical. The following applies: NaCl-loaded LUVs in isosmotic Na2SO4 buffer. On the procedure: FIG. 8 illustrates changes in intravesicular pH upon addition of calixarene tetrabutylamide and calixarene octabutylamide to NaCl^+ loaded vesicles suspended in a sulfate phosphate buffer (emission of HPTS is used to monitor the pH changes in LUVs). At t=60 s, 20 μL of 500 μM of calixarene tetrabutylamide 2 (top trace) or the octabutylamide 3 (bottom trace) was added to 1.95 mL of a LUV suspension to give 1:100 ligand:lipid molar ratio. At t=500 s, 40 μL of 5% Triton X-100 was added. Intravesicular pH values were obtained as a function of the ratio of HPTS emission intensities at 510 nm, when excited at […]. The calibration was performed by measuring the HPTS emission intensities and the pH values of a […] HPTS solution in 10 mM phosphate buffer containing 100 mM NaCl. The calibration equation obtained (pH=1.1684×log (I0I1)+6.9807, r=0.998, where I0 is the emission intensity with excitation at […]) was used to convert the emission intensities into actual pH values.
The pH reached its maximum 250 s after addition of 2 and held constant until the liposomes were lysed with detergent. […] In effect, compound 2 moves […] along with Cl^− down the chloride gradient, consequently building a pH gradient across the membrane. Therefore, NaCl filled vesicles lose Cl^− and H^+ upon addition of 2 and become more alkaline.
Calcein-Release Assay. Calcein-loaded vesicles (100 μL of the stock solution), filled with a saline phosphate buffer (10 mM sodium phosphate, pH 6.4, […] NaCl), were suspended in 1.85 mL of an isoosmotic phosphate sulfate buffer (10 mM sodium phosphate, pH 6.4^−75 mM (Na2SO4) and placed into a fluorimetric cell. HPTS emission at 510 nm was monitored with excitation wavelengths at 403 and 460 nm simultaneously. During the experiment, 20 μL of a 0-500 μM THF solution of the compound of interest was added through an injection port. Intravesicular pH values were obtained as a function of the ratio of HPTS emission intensities at 510 nm, when excited at 403 and 460 nm. […]

A short description of data set [4]: 1H NMR binding experiment in CDCl3 with n-Bu4-NCl. On the procedure: as §1, §2

Structures are written as SMILES.

As to `CCCCNC(=O)COc1c2cccc1Cc1cccc(c1OCC(=O)NCCCC)Cc1cccc(c1OCC(=O)NCCCC)Cc1cccc(c1OCC(=O)NCCCC)C2` [calix[4]arene tetrabutylamide 2, Calix[4]arene tetrabutylamide], the “stability of the channels (open states)” value in data set [1] was “stable”. Moreover, the “centre of the conductance distribution” value in data set [1] (480 events, 1 M KCl) is reported as approximately 100 pS. The HCl binding entry in data set [2] is “binds HCl”. Besides, in data set [3], the “change of intravesicular pH / pH gradient formation” value is listed as “rapid increase in intravesicular pH” and the “time to maximum intravesicular pH after addition” value stood at 250 s. The “binding of the naked Cl− anion” value in data set [4] was “does not bind strongly”.
